Read-outs that look alike come from different tables or passages of the source. Marks after values point to notes of the source that are not given here.
Columns and labels:
cells of rat spleen = assay: cells; format: cell-based, SD rat; settings: 24 h, read-out: Minimum effective concentration (interferon inducing activity)
cells of mouse spleen = assay: cells; format: cell-based, C3H/HeJ mouse; settings: Mus musculus, 24 h, read-out: Minimum effective concentration (interferon inducing activity)
[1] = Metabolic stability on liver S9 of rat; settings: rat liver S9, test compound 1 μM, 37° C.
Procedure: The compound of the present invention is added to liver S9 solution, and the mixture is incubated at 37±0.5° C. for 5 minutes to 2 hours. By quantitatively analyzing at the definite interval the amount of the compound of the present invention remaining in the liver S9 solution with HPLC (high performance liquid chromatography), etc., the constant of quenching velocity is calculated and the half life is calculated.
The reaction on river S9 of a rat was carried out on a 96-well plate by using a robot for screening by Tecan Company. S9 solution was prepared by adding to 10 ml of liver S9 of a rat, 20 ml of 250 mM Kpi (pH 7.4) and 20 ml of deionized water. Cofactor solution was prepared by dissolving NADPH (220 mg) in deionized water (40.5 ml) to give finally a 6 mM solution. IS (Internal Standard) solution was prepared by adding 300 μL of IS solution (1 mM DMSO solution) to 30 ml of acetonitrile solution (100 times dilution). The test compound (1 μM DMSO solution) was dissolved in an incubator at 37° C., 35 μL of it was poured into each well of a 96-well plate (24 samples/plate and then, plates (a sample plate, a 96 well-plate for dilution, deep well plates for reaction and recovering, a plate for extraction of the solid phase) and the test samples (S9 solution, Cofactor solution, IS (Internal Standard) solution, Stop solution, acetonitrile for elution) were set to the specified position in the booth of the robot. The reaction started (the concentration of the test compound was 1 μM) and the mixture was incubated at 37° C. under stirring. The solid phase was extracted and at the same time the internal standard for analysis was added. To the recovered sample (200 μL/well) was added 50 μL of acetonitrile per each well and to 2 plates of FALCON Deep well were poured 100 μL of the solution per well. By subjecting to the LC/MS analysis, the chromatogram of the test sample and the internal standard were described and the peak area was calculated. And then, the stability (residual rate after reaction) was calculated by the internal standard method.

plasma esterase = settings: rat plasma, 37° C., 15 minutes

| Structure (SMILES) | minimal effective concentration (cells of rat spleen) | minimal effective concentration (cells of mouse spleen) | Residual rate [1] | Residual rate (plasma esterase; test compound 1 μM (*)) | Residual rate (plasma esterase; test compound 10 μM) |
| --- | --- | --- | --- | --- | --- |
| CCCCOc1nc(N)c2nc(O)n(Cc3cccc(CC(=O)OC)c3)c2n1 [Example 19, 2-Butoxy-8-hydroxy-9-(3-methoxycarbonylmethylbenzyl)adenine] | 0.0003 µM | < 0.001 µM |  |  |  |
| Nc1nc(CC(=O)O)nc2c1nc(O)n2Cc1ccccc1 [Comparative example 8, 9-Benzyl-2-carboxymethyl-8-hydroxyadenine, reference compound] | 3 µM | 10 µM |  |  |  |
| Cc1ccc(Cn2c(O)nc3c(N)nc(OCCO)nc32)cn1 [Comparative example 11, 8-Hydroxy-2-(2-hydroxyethoxy)-9-{(6-methyl-3-pyridyl)methyl}adenine, reference compound] |  | 0.1 µM |  |  |  |
| Cc1ccc(Cn2c(O)nc3c(N)nc(NCCO)nc32)cn1 [Comparative example 10, 8-Hydroxy-2-(2-hydroxyethylamino)-9-{(6-methyl-3-pyridyl)methyl}adenine, reference compound] |  | 1 µM |  |  |  |
| CCCCOc1nc(N)c2nc(O)n(Cc3ccc(CC(=O)OCCO)cc3)c2n1 [Example 71, 2-Butoxy-8-hydroxy-9-{4-(2-hydroxyethoxycarbonyl)methylbenzyl}adenine] | 0.0003 µM |  | 0% | 0* % |  |
| CCCCOc1nc(N)c2nc(O)n(Cc3ccc(CC(=O)SC)cc3)c2n1 [Example 74, 2-Butoxy-8-hydroxy-9-{4-(S-methylthiocarbonyl)methylbenzyl}adenine] | 0.001 µM |  | 7% | 0* % |  |
| CCCCOc1nc(N)c2nc(O)n(Cc3ccc(CC(=O)O)cc3)c2n1 [Comparative example 6, 2-Butoxy-8-hydroxy-9-(4-carboxymethylbenzyl)adenine, reference compound] | 0.01 µM | 0.03 µM |  |  |  |
| Nc1nc(SCCC(=O)O)nc2c1nc(O)n2Cc1ccccc1 [Comparative example 13, 9-Benzyl-8-hydroxy-2-(2-calboxylethyl)thioadenine, reference compound] | 0.3 µM | 10 µM |  |  |  |
| CCCCOc1nc(N)c2nc(O)n(Cc3ccc(C(=O)O)o3)c2n1 [Comparative example 3, 2-Butoxy-8-hydroxy-9-(5-carboxyfurfuryl)adenine, reference compound] | 0.01 µM | 0.1 µM |  |  |  |
| COC(=O)CCc1nc(N)c2nc(O)n(Cc3ccccc3)c2n1 [Example 61, 9-Benzyl-8-hydroxy-2-(2-methoxycarbonylethyl)adenine] | 0.003 µM |  | 0% | 0* % |  |
| CCCCOc1nc(N)c2nc(O)n(Cc3cccc(CC(=O)O)c3)c2n1 [Comparative example 5, 2-Butoxy-8-hydroxy-9-(3-carboxymethylbenzyl)adenine, reference compound] | 0.01 µM | 0.1 µM |  |  |  |
| CCCCOc1nc(N)c2nc(O)n(Cc3cccc(CC(=O)OCCF)c3)c2n1 [Example 70, 2-Butoxy-8-hydroxy-9-{3-(2-fluoroethoxycarbonyl)methylbenzyl}adenine] | 0.001 µM |  | 16% | 0* % |  |
| CCCCOc1nc(N)c2nc(O)n(Cc3ccc(CC(=O)OCC)cc3)c2n1 [Example 68, 2-Butoxy-8-hydroxy-9-(4-ethoxycarbonylmethylbenzyl)adenine] | 0.0003 µM |  | 13% | 0* % |  |
| CCCCOc1nc(N)c2nc(O)n(Cc3cccc(C(=O)OCC)c3)c2n1 [Example 2, 2-Butoxy-8-hydroxy-9-(3-ethoxycarbonylbenzyl)adenine] | 0.001 µM |  | 11% |  | 5% |
| COC(=O)c1cccc(CSc2nc(N)c3nc(O)n(Cc4ccccc4)c3n2)c1 [Example 103, 9-Benzyl-8-hydroxy-2-[(3-methoxycarbonylbenzyl)thio]adenine] | 0.01 µM |  | 7% | 6* % |  |
